{
  "source": "ChEMBL document CHEMBL3576844",
  "about": "“Melanin-concentrating hormone receptor 1 antagonists for treatment of obesity” (ACS Med Chem Lett, 2015)",
  "key": {"[1]": {"molecular_target": "hERG (KCNH2) (Homo sapiens, UniProt Q12809)", "sequence (Q12809 whole entry)": "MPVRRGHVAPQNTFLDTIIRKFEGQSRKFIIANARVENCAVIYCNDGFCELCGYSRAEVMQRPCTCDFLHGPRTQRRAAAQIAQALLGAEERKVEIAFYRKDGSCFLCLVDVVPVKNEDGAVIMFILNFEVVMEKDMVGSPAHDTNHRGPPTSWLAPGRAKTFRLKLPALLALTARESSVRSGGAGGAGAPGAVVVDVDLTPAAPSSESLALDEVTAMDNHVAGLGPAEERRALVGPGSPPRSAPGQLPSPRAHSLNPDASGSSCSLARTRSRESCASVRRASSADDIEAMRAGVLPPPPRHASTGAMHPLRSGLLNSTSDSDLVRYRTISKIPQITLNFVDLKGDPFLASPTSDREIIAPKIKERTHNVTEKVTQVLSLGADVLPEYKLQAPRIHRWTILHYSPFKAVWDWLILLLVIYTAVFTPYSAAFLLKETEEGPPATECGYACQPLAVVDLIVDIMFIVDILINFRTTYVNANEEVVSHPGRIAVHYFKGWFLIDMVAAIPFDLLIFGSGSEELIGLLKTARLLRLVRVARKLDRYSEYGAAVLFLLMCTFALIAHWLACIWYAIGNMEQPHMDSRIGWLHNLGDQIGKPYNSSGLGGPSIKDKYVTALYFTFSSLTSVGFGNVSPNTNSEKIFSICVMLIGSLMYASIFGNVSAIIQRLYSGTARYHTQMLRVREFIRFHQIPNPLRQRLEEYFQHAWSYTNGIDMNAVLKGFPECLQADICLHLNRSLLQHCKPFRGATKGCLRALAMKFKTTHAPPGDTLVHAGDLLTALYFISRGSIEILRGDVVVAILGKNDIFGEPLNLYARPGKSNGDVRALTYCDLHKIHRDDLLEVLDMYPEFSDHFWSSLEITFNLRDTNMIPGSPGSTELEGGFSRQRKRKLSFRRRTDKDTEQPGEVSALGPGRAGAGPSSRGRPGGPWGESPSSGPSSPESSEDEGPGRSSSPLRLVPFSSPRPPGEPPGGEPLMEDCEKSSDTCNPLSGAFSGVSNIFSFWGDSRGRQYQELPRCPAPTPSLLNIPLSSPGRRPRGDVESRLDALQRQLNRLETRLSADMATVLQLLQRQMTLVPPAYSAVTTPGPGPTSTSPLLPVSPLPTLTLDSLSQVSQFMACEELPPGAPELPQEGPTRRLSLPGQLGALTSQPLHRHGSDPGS", "assay": "Inhibition of human ERG expressed in CHO cells at 10 uM after 5 mins by IonWorks assay relative to control", "settings": "CHO cells expressing human ERG"}, "[2]": {"molecular_target": "Melanin-concentrating hormone receptor 1 (Homo sapiens) (UniProt Q99705)", "sequence (Q99705 whole entry)": "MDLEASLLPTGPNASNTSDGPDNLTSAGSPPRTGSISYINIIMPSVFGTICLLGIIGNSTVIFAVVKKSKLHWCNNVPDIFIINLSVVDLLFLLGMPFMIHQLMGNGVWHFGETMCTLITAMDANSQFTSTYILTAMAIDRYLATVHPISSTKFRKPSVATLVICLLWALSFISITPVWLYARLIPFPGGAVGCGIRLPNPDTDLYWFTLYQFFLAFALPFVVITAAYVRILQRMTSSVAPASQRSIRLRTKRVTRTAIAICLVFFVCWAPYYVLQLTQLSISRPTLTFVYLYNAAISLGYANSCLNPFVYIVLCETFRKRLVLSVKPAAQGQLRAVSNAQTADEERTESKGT", "assay": "Antagonist activity at human MCH1 receptor expressed in CHO cell membranes assessed as inhibition of MCH (4 to 19)-stimulated calcium mobilization at 0.1 uM measured every 2 secs by fluorometric analysis relative to control", "type": "functional, cell-based"}, "[3]": {"molecular_target": "Melanin-concentrating hormone receptor 1 (Homo sapiens) (UniProt Q99705)", "assay": "Displacement of [125I]-MCH (4 to 19) from human MCH1 receptor expressed in CHO cell membranes at 0.1 uM after 1 hr by liquid scintillation counting analysis relative to control"}},
  "data": [
    {"smiles": "Cc1c2cc(-n3ccc(OCc4ccc(Cl)cc4)cc3=O)ccc2nn1C", "values": [
      {"measurement": "inhibition at 5 min, 10 µM", "setting": "[1]", "result": 22.1, "unit": "%"},
      {"measurement": "inhibition", "setting": "[2]", "result": 83, "unit": "%"},
      {"measurement": "inhibition", "setting": "[3]", "result": 72, "unit": "%"}
    ]},
    {"smiles": "Cc1c2cc(-n3ccc(OCc4csc(C(F)(F)F)n4)cc3=O)ccc2nn1C1CC1", "values": [
      {"measurement": "inhibition", "setting": "[2]", "result": 78, "unit": "%"},
      {"measurement": "inhibition", "setting": "[3]", "result": 50, "unit": "%"}
    ]},
    {"smiles": "Cc1c2cc(-n3ccc(OCc4ccc(F)cc4)cc3=O)ccc2nn1C1CC1", "values": [
      {"measurement": "inhibition", "setting": "[2]", "result": 70, "unit": "%"},
      {"measurement": "inhibition", "setting": "[3]", "result": 72, "unit": "%"}
    ]},
    {"smiles": "Cc1c2cc(-n3ccc(OCc4csc(C(F)(F)F)c4)cc3=O)ccc2nn1C1CC1", "values": [
      {"measurement": "inhibition", "setting": "[2]", "result": 55, "unit": "%"},
      {"measurement": "inhibition", "setting": "[3]", "result": 77, "unit": "%"}
    ]}
  ]
}
